US11345681B1, “Inhibitors of fibroblast growth factor receptor kinases” (Kinnate Biopharma Inc., priority 2020, dated 2022)

Target: Wild type FGFR2 (Homo sapiens (Human), UniProt P21802)
Test: FGFR2 kinase assay (fluorescence-based microfluidic mobility shift assay)
Format: biochemical
Details: wild type FGFR2 0.06 nM, 100 μM ATP, 80 minutes at room temperature; class symbols

Chain of Wild type FGFR2 (P21802 22-821): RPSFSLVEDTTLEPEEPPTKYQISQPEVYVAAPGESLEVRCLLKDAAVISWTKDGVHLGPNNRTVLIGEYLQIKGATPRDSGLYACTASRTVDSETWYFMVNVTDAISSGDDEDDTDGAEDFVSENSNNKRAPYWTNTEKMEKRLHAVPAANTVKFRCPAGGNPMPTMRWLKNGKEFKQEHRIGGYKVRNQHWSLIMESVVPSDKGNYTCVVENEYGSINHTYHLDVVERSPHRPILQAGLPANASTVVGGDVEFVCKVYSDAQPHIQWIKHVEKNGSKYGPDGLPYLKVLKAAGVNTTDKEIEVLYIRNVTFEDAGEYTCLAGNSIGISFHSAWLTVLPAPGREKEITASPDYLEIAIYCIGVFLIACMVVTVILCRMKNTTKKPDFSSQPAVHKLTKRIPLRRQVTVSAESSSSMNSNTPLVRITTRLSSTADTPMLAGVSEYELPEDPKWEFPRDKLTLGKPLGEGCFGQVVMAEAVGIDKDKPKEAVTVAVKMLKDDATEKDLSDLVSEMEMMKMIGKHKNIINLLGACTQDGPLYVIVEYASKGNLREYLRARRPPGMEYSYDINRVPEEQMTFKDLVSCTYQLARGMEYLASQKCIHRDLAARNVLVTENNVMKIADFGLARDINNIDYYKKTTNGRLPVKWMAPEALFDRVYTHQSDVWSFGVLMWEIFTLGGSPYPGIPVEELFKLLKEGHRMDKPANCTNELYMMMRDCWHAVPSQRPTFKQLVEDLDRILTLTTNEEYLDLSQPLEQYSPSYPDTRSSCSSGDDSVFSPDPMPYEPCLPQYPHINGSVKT

SMILES	IC50
C=CC(=O)N1C[C@@H](n2nc(C#Cc3cc4c(cc3Cl)ncn4C(F)F)c(C(N)=O)c2NC)C[C@@H]1COC [Example 93, 3-[2-[6-Chloro-3-(difluoromethyl)-1,3-benzodiazol-5-yl]ethynyl]-1-[(3S,5R)-5-(methoxymethyl)-1-(prop-2-enoyl)pyrrolidin-3-yl]-5-(methylamino)pyrazole-4-carboxamide]	≤ 100 nM
C=CC(=O)N1C[C@@H](n2nc(C#Cc3cc4ncn(C(F)F)c4cc3Cl)c(C(N)=O)c2NC)C[C@@H]1COC [Example 94, 3-[2-[6-Chloro-1-(difluoromethyl)-1,3-benzodiazol-5-yl]ethynyl]-1-[(3S,5R)-5-(methoxymethyl)-1-(prop-2-enoyl)pyrrolidin-3-yl]-5-(methylamino)pyrazole-4-carboxamide]	≤ 100 nM
C=CC(=O)N1C[C@@H](n2nc(C#Cc3cc4c(cc3Cl)nc(C)n4C(F)F)c(C(N)=O)c2NC)C[C@@H]1COC [Example 95, 3-[2-[6-Chloro-3-(difluoromethyl)-2-methyl-1,3-benzodiazol-5-yl]ethynyl]-1-[(3S,5R)-5-(methoxymethyl)-1-(prop-2-enoyl)pyrrolidin-3-yl]-5-(methylamino)pyrazole-4-carboxamide]	100 to 1000 nM
C=CC(=O)N1C[C@@H](n2nc(C#Cc3cc4nc(C)n(C(F)F)c4cc3Cl)c(C(N)=O)c2NC)C[C@@H]1COC [Example 96, 3-[2-[6-Chloro-1-(difluoromethyl)-2-methyl-1,3-benzodiazol-5-yl]ethynyl]-1-[(3S,5R)-5-(methoxymethyl)-1-(prop-2-enoyl)pyrrolidin-3-yl]-5-(methylamino)pyrazole-4-carboxamide]	≤ 100 nM
C=CC(=O)N1C[C@@H](n2nc(C#Cc3c(F)cc4c(nnn4C)c3F)c(C(N)=O)c2NC)C[C@@H]1COC [Example 97, 3-[2-(4,6-Difluoro-1-methyl-1,2,3-benzotriazol-5-yl)ethynyl]-1-[(3S,5R)-5-(methoxymethyl)-1-(prop-2-enoyl)pyrrolidin-3-yl]-5-(methylamino)pyrazole-4-carboxamide]	≤ 100 nM
C=CC(=O)N1C[C@@H](n2nc(C#Cc3cc4nc(C)[nH]c4cc3Cl)c(C(N)=O)c2NC)C[C@@H]1COC [Example 98, 3-[2-(6-Chloro-2-methyl-1R-1,3-benzodiazol-5-yl)ethynyl]-1-[(3S,5R)-5-(methoxymethyl)-1-(prop-2-enoyl)pyrrolidin-3-yl]-5-(methylamino)pyrazole-4-carboxamid]	≤ 100 nM
C=CC(=O)N1C[C@@H](n2nc(C#Cc3c(Cl)cc4c(ncn4CC)c3F)c(C(N)=O)c2NC)C[C@@H]1COC [Example 99, 3-[2-(6-Chloro-1-ethyl-4-fluoro-1,3-benzodiazol-5-yl)ethynyl]-1-[(3S,5R)-5-(methoxymethyl)-1-(prop-2-enoyl)pyrrolidin-3-yl]-5-(methylamino)pyrazole-4-carboxamide]	≤ 100 nM
C=CC(=O)N1C[C@@H](n2nc(C#Cc3c(Cl)cc4c(ncn4C)c3F)c(C(N)=O)c2NC)C[C@@H]1COC [Example 100, 3-[2-(6-Chloro-4-fluoro-1-methyl-1,3-benzodiazol-5-yl)ethynyl]-1-[(3S,5R)-5-(methoxymethyl)-1-(prop-2-enoyl)pyrrolidin-3-yl]-5-(methylamino)pyrazole-4-carboxamide]	≤ 100 nM
C=CC(=O)N1C[C@@H](n2nc(C#Cc3cc4ncn(C)c4c(F)c3F)c(C(N)=O)c2NC)C[C@@H]1COC [Example 101, 3-[2-(6,7-Difluoro-1-methyl-1,3-benzodiazol-5-yl)ethynyl]-1-[(3S,5R)-5-(methoxymethyl)-1-(prop-2-enoyl)pyrrolidin-3-yl]-5-(methylamino)pyrazole-4-carboxamide]	≤ 100 nM
C=CC(=O)N1C[C@@H](n2nc(C#Cc3nc4ccccc4s3)c(C(N)=O)c2NC)C[C@@H]1COC [Example 102, 3-[2-(1,3-Benzothiazol-2-yl)ethynyl]-1-[(3S,5R)-5-(methoxymethyl)-1-(prop-2-enoyl)pyrrolidin-3-yl]-5-(methylamino)pyrazole-4-carboxamide]	≤ 100 nM
C=CC(=O)N1C[C@@H](n2nc(C#Cc3ccc4scnc4c3)c(C(N)=O)c2NC)C[C@@H]1COC [Example 103, 3-[2-(1,3-Benzothiazol-5-yl)ethynyl]-1-[(3S,5R)-5-(methoxymethyl)-1-(prop-2-enoyl)pyrrolidin-3-yl]-5-(methylamino)pyrazole-4-carboxamide]	≤ 100 nM
C=CC(=O)N1C[C@@H](n2nc(C#Cc3ccn4ncnc4c3)c(C(N)=O)c2NC)C[C@@H]1COC [Example 107, 1-[(3S,5R)-5-(Methoxymethyl)-1-(prop-2-enoyl)pyrrolidin-3-yl]-5-(methylamino)-3-(2-[[1,2,4]triazolo[1,5-c]pyridin-7-yl]ethynyl)pyrazole-4-carboxamide]	100 to 1000 nM
C=CC(=O)N1C[C@@H](n2nc(C#Cc3ccc4ocnc4c3)c(C(N)=O)c2NC)C[C@@H]1COC [Example 108, 3-[2-(1,3-Benzoxazol-5-yl)ethynyl]-1-[(3S,5R)-5-(methoxymethyl)-1-(prop-2-enoyl)pyrrolidin-3-yl]-5-(methylamino)pyrazole-4-carboxamide]	≤ 100 nM
C=CC(=O)N1C[C@@H](n2nc(C#Cc3c(F)cc4c(ncn4CC)c3F)c(C(N)=O)c2NCC2CC2)C[C@@H]1COC [Example 109, 5-[(Cyclopropylmethyl)amino]-3-[2-(1-ethyl-4,6-difluoro-1,3-benzodiazol-5-yl)ethynyl]-1-[(3S,5R)-5-(methoxymethyl)-1-(prop-2-enoyl)pyrrolidin-3-yl]pyrazole-4-carboxamide]	≤ 100 nM
C=CC(=O)N1C[C@@H](n2nc(C#Cc3c(F)cc4c(ncn4CC)c3F)c(C(N)=O)c2NCCCN2CCOCC2)C[C@@H]1COC [Example 111, 3-[2-(1-Ethyl-4,6-difluoro-1,3-benzodiazol-5-yl)ethynyl]-1-[(3S,5R)-5-(methoxymethyl)-1-(prop-2-enoyl)pyrrolidin-3-yl]-5-[[3-(morpholin-4-yl)propyl]amino]pyrazole-4-carboxamide]	≤ 100 nM
C=CC(=O)N1CC[C@H](n2nc(C#Cc3c(F)cc4c(ncn4CC)c3F)c(C(N)=O)c2NCCN2CCOCC2)C1 [Example 112, 3-[2-(1-Ethyl-4,6-difluoro-1,3-benzodiazol-5-yl)ethynyl]-5-[[2-(morpholin-4-yl)ethyl]amino]-1-[(3S)-1-(prop-2-enoyl)pyrrolidin-3-yl]pyrazole-4-carboxamide]	≤ 100 nM
C=CC(=O)N1C[C@@H](n2nc(C#Cc3cc4ncn(C)c4c(F)c3Cl)c(C(N)=O)c2NC)C[C@@H]1COC [Example 113, 3-[2-(6-chloro-7-fluoro-1-methyl-1,3-benzodiazol-5-yl)ethynyl]-1-[(3S,5R)-5-(methoxymethyl)-1-(prop-2-enoyl)pyrrolidin-3-yl]-5-(methylamino)pyrazole-4-carboxamide]	≤ 100 nM
C=CC(=O)N1C[C@@H](n2nc(C#Cc3nc4ccccc4o3)c(C(N)=O)c2NC)C[C@@H]1COC [Example 114, 3-[2-(1,3-Benzoxazol-2-yl)ethynyl]-1-[(3S,5R)-5-(methoxymethyl)-1-(prop-2-enoyl)pyrrolidin-3-yl]-5-(methylamino)pyrazole-4-carboxamide]	≤ 100 nM
C=CC(=O)N1C[C@@H](n2nc(C#Cc3cc4ncoc4cc3F)c(C(N)=O)c2NC)C[C@@H]1COC [Example 115, 3-[2-(6-Fluoro-1,3-benzoxazol-5-yl)ethynyl]-1-[(3S,5R)-5-(methoxymethyl)-1-(prop-2-enoyl)pyrrolidin-3-yl]-5-(methylamino)pyrazole-4-carboxamide]	≤ 100 nM
C=CC(=O)N1C[C@@H](n2nc(C#Cc3c(F)cc4c(ncn4CC)c3F)c(C(N)=O)c2NCCO)C[C@@H]1COC [Example 116, 3-[2-(1-Ethyl-4,6-difluoro-1,3-benzodiazol-5-yl)ethynyl]-5-[(2-hydroxyethyl)amino]-1-[(3S,5R)-5-(methoxymethyl)-1-(prop-2-enoyl)pyrrolidin-3-yl]pyrazole-4-carboxamide]	≤ 100 nM
C=CC(=O)N1C[C@@H](n2nc(C#Cc3c(F)cc4c(ncn4CC)c3F)c(C(N)=O)c2NCCOC)C[C@@H]1COC [Example 117, 3-[2-(1-Ethyl-4,6-difluoro-1,3-benzodiazol-5-yl)ethynyl]-5-[(2-methoxyethyl)amino]-1-[(3S,5R)-5-(methoxymethyl)-1-(prop-2-enoyl)pyrrolidin-3-yl]pyrazole-4-carboxamide]	≤ 100 nM
C=CC(=O)N1CC[C@H](n2nc(C#Cc3c(F)cc4c(ncn4CC)c3F)c(C(N)=O)c2NCC2CC2)C1 [Example 118, 5-[(Cyclopropylmethyl)amino]-3-[2-(1-ethyl-4,6-difluoro-1,3-benzodiazol-5-yl)ethynyl]-1-[(3S)-1-(prop-2-enoyl)pyrrolidin-3-yl]pyrazole-4-carboxamide]	≤ 100 nM
C=CC(=O)N1CC[C@H](n2nc(C#Cc3c(F)cc4c(ncn4CC)c3F)c(C(N)=O)c2NCCOC)C1 [Example 119, 3-[2-(1-Ethyl-4,6-difluoro-1,3-benzodiazol-5-yl)ethynyl]-5-[(2-methoxyethyl)amino]-1-[(3S)-1-(prop-2-enoyl)pyrrolidin-3-yl]pyrazole-4-carboxamide]	≤ 100 nM
C=CC(=O)N1CC[C@H](n2nc(C#Cc3c(F)cc4c(ncn4CC)c3F)c(C(N)=O)c2NCCCN2CCOCC2)C1 [Example 120, 3-[2-(1-ethyl-4,6-difluoro-1,3-benzodiazol-5-yl)ethynyl]-5-[[3-(morpholin-4-yl)propyl]amino]-1-[(3S)-1-(prop-2-enoyl)pyrrolidin-3-yl]pyrazole-4-carboxamide]	≤ 100 nM

Same assay, conditions: wild type FGFR2 0.06 nM, 100 μM ATP, 80 minutes at room temperature; given as numeric bound

SMILES	IC50
C=CC(=O)N1C[C@@H](n2nc(C#Cc3cn4ccccc4n3)c(C(N)=O)c2NC)C[C@@H]1COC [Example 104, 3-(2-[Imidazo[1,2-a]pyridin-2-yl]ethynyl)-1-[(3S,5R)-5-(methoxymethyl)-1-(prop-2-enoyl)pyrrolidin-3-yl]-5-(methylamino)pyrazole-4-carboxamide]	> 500 nM
C=CC(=O)N1C[C@@H](n2nc(C#Cc3ccc4ncnn4c3)c(C(N)=O)c2NC)C[C@@H]1COC [Example 106, 1-[(3S,5R)-5-(Methoxymethyl)-1-(Prop-2-enoyl)pyrrolidin-3-yl]-5-(methylamino)-3-(2-[[1,2,4]triazolo[1,5-a]pyridin-6-yl]ethynyl)pyrazole-4-carboxamide]	> 500 nM
